The source of these data is patent US8846933B2, “N-link hydroxamic acid derivatives useful as antibacterial agents” (Pfizer Inc., priority 2009, dated 2014).

Format in all cases: cell-based
For experiment [1], the system named is Acinetobacter baumanii/haemolyticus: Multidrug-resistant clinical isolate (AB-3167). The experiment in a line: MIC determination (CLSI), strain AB-3167. The note with it: unit assumed. The method, then: The in vitro antibacterial activity of compounds described in the Examples was evaluated by minimum inhibitory concentration (MIC) testing according to Clinical and Laboratory Standards Institute (CLSI, formerly NCCLS) guidelines. See: Clinical and Laboratory Standards Institute. Methods for Dilution Antimicrobial Susceptibility Tests for Bacteria that Grow Aerobically; Approved Standard-Seventh Edition. CLSI document M7-A7 [ISBN 1-56238-587-9]. Clinical and Laboratory Standards Institute, 940 West Valley Road, Suite 1400, Wayne, Pa. 19087-1898 USA, 2006; also Clinical and Laboratory Standards Institute. Performance Standards for Antimicrobial Susceptibility Testing; Eighteenth Informational Supplement. CLSI document M100-S18 [ISBN1-56238-653-0].Clinical and Laboratory Standards Institute.
The following bacterial strains were used in these MIC determinations:
2) Acinetobacter baumanii/haemolyticus: Multidrug-resistant clinical isolate labeled as AB-3167 in Tables 4 and 5;

In experiment [2] the test system is Escherichia coli EC-1: VOGEL, mouse virulent. Description: MIC determination (CLSI), strain EC-1. The note with it: Escherichia coli EC-1, VOGEL, mouse virulent; unit assumed. Put shortly:
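The mouse-virulent VOGEL isolate of E. coli, EC-1, served as test organism. Minimum inhibitory concentration was measured by CLSI dilution methodology (M7-A7; M100-S18 standards).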

Experiment [3] deals with Pseudomonas aeruginosa UI-18: Wild-type (PA-7). The experiment in a line: MIC determination (CLSI), strain PA-7. The note with it: Pseudomonas aeruginosa UI-18, wild-type; unit assumed. Put shortly:
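MIC determined by broth dilution per CLSI M7-A7 guidelines with M100-S18 interpretive standards. Test organism: wild-type Pseudomonas aeruginosa UI-18, designated PA-7.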

Some results are limits rather than exact numbers.

In the case of `CC(CCn1ccc(-c2ccc(OCCCO)cc2)cc1=O)(C(=O)NO)S(C)(=O)=O` (stereo not drawn) [Example 30, N-hydroxy-4-{4-[4-(3-hydroxypropoxy)phenyl]-2-oxopyridin-1(2H)-yl}-2-methyl-2-(methylsulfonyl)butanamide], the AB-3167 (MIC) in experiment [1] was over 64 µg/mL. The EC-1 (MIC) in experiment [2] is 2 µg/mL. The same compound returned a PA-7 (MIC) in experiment [3] of 4 µg/mL.

In experiment [1], `CC(CCn1ccc(-c2ccc(CCCO)cc2)cc1=O)(C(=O)NO)S(C)(=O)=O` (stereo not drawn) [Example 31, N-Hydroxy-4-{4-[4-(3-hydroxypropyl)phenyl]-2-oxopyridin-1(2H)-yl}-2-methyl-2-(methylsulfonyl)butanamide] showed an AB-3167 (MIC) of over 64 µg/mL. The compound further gave an EC-1 (MIC) in experiment [2] of 8 µg/mL. The PA-7 (MIC) in experiment [3] was found to be 4 µg/mL.

With `C[C@@](CCn1ccc(-c2ccc(OCCC3CC(O)C3)cc2)cc1=O)(C(=O)NO)S(C)(=O)=O` (stereo partly drawn) [Example 32, (2R)-N-hydroxy-4-[4-{4-[2-(3-hydroxycyclobutyl)ethoxy]phenyl}-2-oxopyridin-1(2H)-yl]-2-methyl-2-(methylsulfonyl)butanamide], in experiment [1], the AB-3167 (MIC) is over 64 µg/mL. The compound also came in with an EC-1 (MIC) in experiment [2] of 0.25 µg/mL. In addition, the PA-7 (MIC) in experiment [3] was 1 µg/mL.

`CC(CCn1ccc(-c2ccc3cccnc3c2)cc1=O)(C(=O)NO)S(C)(=O)=O` (stereo not drawn) [Example 36, N-hydroxy-2-methyl-2-(methylsulfonyl)-4-(2-oxo-4-quinolin-7-ylpyridin-1(2H)-yl)butanamide] had an AB-3167 (MIC) in experiment [1] of over 64 µg/mL. Also, the EC-1 (MIC) in experiment [2] came to 4 µg/mL. This compound registered a PA-7 (MIC) in experiment [3] of 8 µg/mL.

Compound `CC(CCn1ccc(-c2ccc(OCCc3ccncc3)cc2)cc1=O)(C(=O)NO)S(C)(=O)=O` (stereo not drawn) [Example 37, N-hydroxy-2-methyl-2-(methylsulfonyl)-4-{2-oxo-4-[4-(2-pyridin-4-ylethoxy)phenyl]pyridin-1(2H)-yl}butanamide] showed an AB-3167 (MIC) in experiment [1] of over 64 µg/mL. Also, the EC-1 (MIC) in experiment [2] is 0.5 µg/mL. The PA-7 (MIC) in experiment [3] was determined as 4 µg/mL.

The compound `Cc1cnc(-c2ccc(-c3ccn(CC[C@](C)(C(=O)NO)S(C)(=O)=O)c(=O)c3)cc2)o1` [Example 38, (2R)-N-hydroxy-2-methyl-4-{4-[4-(5-methyl-1,3-oxazol-2-yl)phenyl]-2-oxopyridin-1(2H)-yl}-2-(methylsulfonyl)butanamide] had an AB-3167 (MIC) in experiment [1] of over 64 µg/mL. This compound also had an EC-1 (MIC) in experiment [2] of 0.06 µg/mL. The compound further returned a PA-7 (MIC) in experiment [3] of 0.5 µg/mL.

Take `C[C@@](CCn1ccc(-c2ccc(-c3ncccn3)cc2)cc1=O)(C(=O)NO)S(C)(=O)=O` [Example 39, (2R)-N-hydroxy-2-methyl-2-(methylsulfonyl)-4-[2-oxo-4-(4-pyrimidin-2-ylphenyl)pyridin-1(2H)-yl]butanamide]: the AB-3167 (MIC) in experiment [1] is over 64 µg/mL. The compound further showed an EC-1 (MIC) in experiment [2] of 0.5 µg/mL. This compound yielded a PA-7 (MIC) in experiment [3] of 2 µg/mL.

In the case of `C[C@@](CCn1ccc(-c2ccc(-n3nccn3)cc2)cc1=O)(C(=O)NO)S(C)(=O)=O` [Example 40, (2R)-N-hydroxy-2-methyl-2-(methylsulfonyl)-4-{2-oxo-4-[4-(2H-1,2,3-triazol-2-yl)phenyl]pyridin-1(2H)-yl}butanamide], the AB-3167 (MIC) in experiment [1] was over 64 µg/mL. This compound also returned an EC-1 (MIC) in experiment [2] of 0.03 µg/mL. In experiment [3], the PA-7 (MIC) amounted to 0.25 µg/mL.

Compound `C[C@@](CCn1ccc(-c2ccc(F)cc2)cc1=O)(C(=O)NO)S(C)(=O)=O` [Example 41, (2R)-4-[4-(4-fluorophenyl)-2-oxopyridin-1(2H)-yl]-N-hydroxy-2-methyl-2-(methylsulfonyl)butanamide] showed an AB-3167 (MIC) in experiment [1] of over 64 µg/mL. The EC-1 (MIC) in experiment [2] is 1 µg/mL. In experiment [3], this compound displayed a PA-7 (MIC) of 0.5 µg/mL.

For the compound `C[C@@](CCn1ccc(-c2cccc(F)c2)cc1=O)(C(=O)NO)S(C)(=O)=O` [Example 42, (2R)-4-[4-(3-fluorophenyl)-2-oxopyridin-1(2H)-yl]-N-hydroxy-2-methyl-2-(methylsulfonyl)butanamide], the AB-3167 (MIC) in experiment [1] was over 64 µg/mL. Also, the EC-1 (MIC) in experiment [2] came out at 2 µg/mL. Moreover, the PA-7 (MIC) in experiment [3] amounted to 1 µg/mL.

In experiment [1], `C[C@@](CCn1ccc(-c2ccccc2F)cc1=O)(C(=O)NO)S(C)(=O)=O` [Example 43, (2R)-4-[4-(2-fluorophenyl)-2-oxopyridin-1(2H)-yl]-N-hydroxy-2-methyl-2-(methylsulfonyl)butanamide] returned an AB-3167 (MIC) of over 64 µg/mL. In experiment [2], this compound returned an EC-1 (MIC) of 1 µg/mL. Moreover, the PA-7 (MIC) in experiment [3] is 0.5 µg/mL.

For the compound `COc1ccc(-c2ccn(CC[C@](C)(C(=O)NO)S(C)(=O)=O)c(=O)c2)c(F)c1F` [Example 44, (2R)-4-[4-(2,3-difluoro-4-methoxyphenyl)-2-oxopyridin-1(2H)-yl]-N-hydroxy-2-methyl-2-(methylsulfonyl)butanamide], the AB-3167 (MIC) in experiment [1] is over 64 µg/mL. The same compound showed an EC-1 (MIC) in experiment [2] of 0.015 µg/mL. The compound also came in with a PA-7 (MIC) in experiment [3] of 1 µg/mL.

Consider `C[C@@](CCn1ccc(-c2cccc(Cl)c2F)cc1=O)(C(=O)NO)S(C)(=O)=O` [Example 45, (2R)-4-[4-(3-chloro-2-fluorophenyl)-2-oxopyridin-1(2H)-yl]-N-hydroxy-2-methyl-2-(methylsulfonyl)butanamide], for which the AB-3167 (MIC) in experiment [1] was over 64 µg/mL. In experiment [2], this compound returned an EC-1 (MIC) of 0.25 µg/mL. The same compound came in with a PA-7 (MIC) in experiment [3] of 0.5 µg/mL.

`C[C@@](CCn1ccc(-c2cccc(Cl)c2Cl)cc1=O)(C(=O)NO)S(C)(=O)=O` [Example 46, (2R)-4-[4-(2,3-dichlorophenyl)-2-oxopyridin-1(2H)-yl]-N-hydroxy-2-methyl-2-(methylsulfonyl)butanamide] had an AB-3167 (MIC) in experiment [1] of over 64 µg/mL. In addition, the EC-1 (MIC) in experiment [2] is 0.25 µg/mL. The compound further returned a PA-7 (MIC) in experiment [3] of 0.5 µg/mL.

`C[C@@](CCn1ccc(-c2ccc(C3CCOCC3)cc2)cc1=O)(C(=O)NO)S(C)(=O)=O` [Example 47, (2R)-N-hydroxy-2-methyl-2-(methylsulfonyl)-4-{2-oxo-4-[4-(tetrahydro-2H-pyran-4-yl)phenyl]pyridin-1(2H)-yl}butanamide]: the AB-3167 (MIC) in experiment [1] was over 64 µg/mL. Besides, the EC-1 (MIC) in experiment [2] was 0.5 µg/mL. In experiment [3], this compound had a PA-7 (MIC) of 2 µg/mL.

As to `COCCSc1ccc(-c2ccn(CC[C@](C)(C(=O)NO)S(C)(=O)=O)c(=O)c2)cc1` [Example 48, (2R)-N-hydroxy-4-[4-{4-[(2-methoxyethyl)thio]phenyl}-2-oxopyridin-1(2H)-yl]-2-methyl-2-(methylsulfonyl)butanamide], the AB-3167 (MIC) in experiment [1] is over 64 µg/mL. The same compound yielded an EC-1 (MIC) in experiment [2] of 0.25 µg/mL. The PA-7 (MIC) in experiment [3] was 1 µg/mL.

With `C[C@@](CCn1ccc(-c2ccc(Cl)c(F)c2F)cc1=O)(C(=O)NO)S(C)(=O)=O` [Example 49, (2R)-4-[4-(4-chloro-2,3-difluorophenyl)-2-oxopyridin-1(2H)-yl]-N-hydroxy-2-methyl-2-(methylsulfonyl)butanamide], the AB-3167 (MIC) in experiment [1] was over 64 µg/mL. In experiment [2], this compound displayed an EC-1 (MIC) of 0.125 µg/mL. In experiment [3], this compound had a PA-7 (MIC) of 0.25 µg/mL.

In experiment [1], `C[C@@](CCn1ccc(-c2ccc(F)c(F)c2F)cc1=O)(C(=O)NO)S(C)(=O)=O` [Example 50, (2R)-N-hydroxy-2-methyl-2-(methylsulfonyl)-4-[2-oxo-4-(2,3,4-trifluorophenyl)pyridin-1(2H)-yl]butanamide] showed an AB-3167 (MIC) of 64 µg/mL. The compound also yielded an EC-1 (MIC) in experiment [2] of 0.5 µg/mL. Also, in experiment [3], the PA-7 (MIC) is 0.5 µg/mL.

Consider `CC(CCn1ccc(OCc2ccccc2)cc1=O)(C(=O)NO)S(C)(=O)=O` (stereo not drawn) [Example 51, 4-[4-(Benzyloxy)-2-oxopyridin-1(2H)-yl]-N-hydroxy-2-methyl-2-(methylsulfonyl)butanamide], for which the AB-3167 (MIC) in experiment [1] is over 64 µg/mL. The EC-1 (MIC) in experiment [2] was 16 µg/mL. Besides, in experiment [3], the PA-7 (MIC) amounted to 16 µg/mL.

For `Cc1c(-c2ccccc2)ccn(CCC(C)(C(=O)NO)S(C)(=O)=O)c1=O` (stereo not drawn) [Example 52, N-Hydroxy-2-methyl-4-(3-methyl-2-oxo-4-phenylpyridin-1(2H)-yl)-2-(methylsulfonyl)butanamide], the AB-3167 (MIC) in experiment [1] is over 64 µg/mL. Moreover, the EC-1 (MIC) in experiment [2] was determined as 2 µg/mL. This compound also had a PA-7 (MIC) in experiment [3] of 4 µg/mL.

In the case of `CC(CCn1ccc(C2CCCCC2)cc1=O)(C(=O)NO)S(C)(=O)=O` (stereo not drawn) [Example 53, 4-(4-Cyclohexyl-2-oxopyridin-1(2H)-yl)-N-hydroxy-2-methyl-2-(methylsulfonyl)butanamide], the AB-3167 (MIC) in experiment [1] was over 64 µg/mL. In experiment [2], this compound yielded an EC-1 (MIC) of 16 µg/mL. Also, the PA-7 (MIC) in experiment [3] amounted to 8 µg/mL.

In the case of `CCC(CCn1ccc(-c2ccccc2)cc1=O)(C(=O)NO)S(C)(=O)=O` (stereo not drawn) [Example 54, 2-Ethyl-N-hydroxy-2-(methylsulfonyl)-4-(2-oxo-4-phenylpyridin-1(2H)-yl)butanamide], the AB-3167 (MIC) in experiment [1] came out at 64 µg/mL. The same compound came in with an EC-1 (MIC) in experiment [2] of 16 µg/mL. In experiment [3], the PA-7 (MIC) worked out at 16 µg/mL.

For the compound `C[C@@](CCn1ccc(-c2ccccc2)c(F)c1=O)(C(=O)NO)S(C)(=O)=O` [Example 55, (2R)-4-(3-fluoro-2-oxo-4-phenylpyridin-1(2H)-yl)-N-hydroxy-2-methyl-2-(methylsulfonyl)butanamide], in experiment [1], the AB-3167 (MIC) was over 64 µg/mL. In experiment [2], this compound displayed an EC-1 (MIC) of 8 µg/mL. This compound displayed a PA-7 (MIC) in experiment [3] of 1 µg/mL.

In the case of `C[C@@](CCn1cc(F)c(-c2ccccc2)cc1=O)(C(=O)NO)S(C)(=O)=O` [Example 56, (2R)-4-(5-fluoro-2-oxo-4-phenylpyridin-1(2H)-yl)-N-hydroxy-2-methyl-2-(methylsulfonyl)butanamide], the AB-3167 (MIC) in experiment [1] is over 64 µg/mL. Besides, the EC-1 (MIC) in experiment [2] is 4 µg/mL. Further, the PA-7 (MIC) in experiment [3] was determined as 1 µg/mL.
